According to paper PMC7999182, “Interaction of Remdesivir with Clinically Relevant Hepatic Drug Uptake Transporters” (Pharmaceutics, 2021):

Tests used:
[1] = tested on: vector-transfected control cells; test: Remdesivir accumulation into vector-transfected control HEK cells; type: in vitro ADME, human; conditions: 5 µM remdesivir, 10 min
Excerpt: (§1) Generation, cultivation and characterization of human embryonic kidney (HEK) cells stably expressing OATP1B1 refseq (=OATP1B1*1a), OATP1B1*1b, OATP1B1*5 and OATP1B1*15 [18], OATP1B3 [19], OATP2B1 [13] and OCT1 [20] have been described previously. OATP1B1 cells were cultivated in minimal essential medium (Life Technologies, Paisley, UK) and OATP1B3, OATP2B1 and OCT1 cells were cultivated in Dulbecco’s modified Eagle medium (Sigma, Darmstadt, Germany). Cultivation media were supplemented with 10% fetal calf serum, 100 U/mL penicillin and 100 µg/mL streptomycin. Cells were grown at 37 °C and 5% CO2. Functionality of the cells was confirmed by measuring uptake of prototypic substrates (see Section 2.3 and supplementary material).
(§2) Uptake assays were conducted at 37 °C according to previously described methods. For this, cells were seeded in 24-well plates (320,000 cells/well) and cultured for 2 days. Cells were then incubated for a further 24 h in culture medium with 5 mM butyrate (OATP1B3, OATP2B1, OCT1) or 10 mM butyrate (OATP1B1) to increase protein levels of recombinant transporters. […]
(§3) Remdesivir was determined by UHPLC-MS-MS analysis on an Agilent 1290 infinity UHPLC system coupled to an Agilent 6495B triple quadrupole mass spectrometer (Agilent, Waldbronn, Germany) similar to a recently published method. […]

OCT1 = target: T1, OCT1 (Homo sapiens, UniProt O15245); test: Remdesivir uptake into HEK cells stably expressing OCT1 vs vector control; type: in vitro ADME; conditions: 5 µM remdesivir, 10 min, transporter-expressing vs control HEK cells
T1 construct: expressed in transfected cells
T1 sequence (O15245 1-554): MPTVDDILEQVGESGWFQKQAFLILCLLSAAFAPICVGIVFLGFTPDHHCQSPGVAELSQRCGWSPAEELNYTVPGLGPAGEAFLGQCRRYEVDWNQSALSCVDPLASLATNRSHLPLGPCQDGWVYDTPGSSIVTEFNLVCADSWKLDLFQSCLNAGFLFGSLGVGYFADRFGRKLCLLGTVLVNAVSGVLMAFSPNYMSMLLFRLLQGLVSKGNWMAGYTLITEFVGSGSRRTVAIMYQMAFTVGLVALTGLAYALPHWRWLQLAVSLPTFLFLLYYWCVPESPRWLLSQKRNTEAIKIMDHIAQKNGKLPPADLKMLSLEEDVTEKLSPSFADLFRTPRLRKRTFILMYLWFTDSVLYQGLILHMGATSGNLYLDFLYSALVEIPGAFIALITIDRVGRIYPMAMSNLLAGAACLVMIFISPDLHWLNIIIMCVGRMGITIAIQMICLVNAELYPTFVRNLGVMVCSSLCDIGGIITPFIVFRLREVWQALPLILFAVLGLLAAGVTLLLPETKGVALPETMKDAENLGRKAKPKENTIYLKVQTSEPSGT
Excerpt: as §1, §2, §3

OATP1B1*1b = target: T2, OATP1B1*1b (Homo sapiens, UniProt Q9Y6L6, N130D); test: Remdesivir uptake into HEK cells stably expressing OATP1B1*1b vs vector control; type: in vitro ADME; conditions: 10 min
T2 construct: expressed in transfected cells
T2 sequence (Q9Y6L6 1-691 N130D): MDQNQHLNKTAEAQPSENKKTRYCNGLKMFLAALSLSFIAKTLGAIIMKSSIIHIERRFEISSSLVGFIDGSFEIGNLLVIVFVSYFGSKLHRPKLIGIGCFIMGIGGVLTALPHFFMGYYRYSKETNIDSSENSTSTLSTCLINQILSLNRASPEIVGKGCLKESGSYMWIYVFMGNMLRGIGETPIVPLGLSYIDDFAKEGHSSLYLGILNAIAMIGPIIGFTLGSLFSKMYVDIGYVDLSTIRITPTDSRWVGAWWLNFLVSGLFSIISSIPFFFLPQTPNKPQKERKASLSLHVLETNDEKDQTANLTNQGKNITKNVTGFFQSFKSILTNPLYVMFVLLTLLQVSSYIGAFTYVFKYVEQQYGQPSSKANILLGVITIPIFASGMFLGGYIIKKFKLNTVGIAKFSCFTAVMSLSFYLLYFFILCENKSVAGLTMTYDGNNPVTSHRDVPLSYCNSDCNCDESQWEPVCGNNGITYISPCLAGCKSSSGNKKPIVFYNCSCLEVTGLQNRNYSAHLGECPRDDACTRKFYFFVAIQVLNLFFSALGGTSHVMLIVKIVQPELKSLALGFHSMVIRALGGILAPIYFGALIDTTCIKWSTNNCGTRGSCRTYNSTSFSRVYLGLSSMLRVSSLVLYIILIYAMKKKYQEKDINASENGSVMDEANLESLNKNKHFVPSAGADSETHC
Excerpt: as §1, §2, §3

SMILES: CCC(CC)COC(=O)[C@H](C)N[P@](=O)(OC[C@H]1O[C@@](C#N)(c2ccc3c(N)ncnn23)[C@H](O)[C@@H]1O)Oc1ccccc1 [Remdesivir]
- Accumulation into control cells [1]: high remdesivir accumulation
- Remdesivir uptake ratio (OCT1): 1.2
- Accumulation vs vector-transfected control cells (OATP1B1*1b; 5 µM remdesivir): moderately higher
- Accumulation vs vector-transfected control cells (OATP1B1*1b; 50 µM remdesivir): moderately higher
